The values that follow come from paper PMC3818834 (2013).

For assay [1], the system named is CA-20 (DNA, aptamer) TGGGTGGGTGGGTTGGGGTA
The assay can be described thus: fluorescence titration. As to conditions: 138 mM NaCl, 2.7 mM KCl, 2.5 mM MgCl2; 10 mM PBS pH 7.4, 0.05% TWEEN 20, 25 °C; compound 1 µM; nucleic acid up to 10 µM.

Assay [2] deals with CA-23A (DNA, aptamer) ACTTGGGTGGGTGGGTTGGGGTA
The assay can be described thus: fluorescence titration. The following applies: 138 mM NaCl, 2.7 mM KCl, 2.5 mM MgCl2; 10 mM PBS pH 7.4, 0.05% TWEEN 20, 25 °C; compound 1 µM; 1:1 assumed.

For assay [3], the system named is CA-16 (DNA, aptamer) GGGTGGGTGGGTTGGG
The assay can be described thus: CD melting at 265 nm. As to conditions: 138 mM NaCl, 2.7 mM KCl, 2.5 mM MgCl2; 10 mM PBS pH 7.4; compound 10 µM, nucleic acid 10 µM; Tm without compound 73 °C.

Assay [4] deals with CA-70 (DNA, aptamer) GGTCAGCACGCTCCGGACTTGGGTGGGTGGGTTGGGGTACGGTGCGTAATGTGTCGCTGAGCCTGCCAAC
The experiment in a line: fluorescence titration. The following applies: 138 mM NaCl, 2.7 mM KCl, 2.5 mM MgCl2, 10 mM PBS pH 7.4, 0.05% TWEEN 20, 25 °C.

Assay [5] has as its system CA-19 (DNA, aptamer) GGGTGGGTGGGTTGGGGTA
The experiment in a line: fluorescence polarization. The following applies: 138 mM NaCl, 2.7 mM KCl, 2.5 mM MgCl2; 10 mM PBS pH 7.4, 0.05% TWEEN 20, 25 °C; compound 1 µM; nucleic acid up to 10 µM.

Assay [6] has as its system CA-40 (DNA, aptamer) ACGCTCCGGACTTGGGTGGGTGGGTTGGGGTACGGTGCGT
The assay can be described thus: fluorescence titration. The following applies: 138 mM NaCl, 2.7 mM KCl, 2.5 mM MgCl2; 10 mM PBS pH 7.4, 0.05% TWEEN 20, 25 °C; compound 1 µM; 1:1 assumed.

Assay [7] deals with CA-23B (DNA, aptamer) TTTTGGGTGGGTGGGTTGGGGTA
The experiment in a line: fluorescence titration. As to conditions: 138 mM NaCl, 2.7 mM KCl, 2.5 mM MgCl2; 10 mM PBS pH 7.4, 0.05% TWEEN 20, 25 °C; compound 1 µM; nucleic acid up to 10 µM.

The subject of assay [8] is CA-16 (DNA, aptamer) GGGTGGGTGGGTTGGG
The assay can be described thus: fluorescence polarization. The following applies: 138 mM NaCl, 2.7 mM KCl, 2.5 mM MgCl2; 10 mM PBS pH 7.4, 0.05% TWEEN 20, 25 °C; compound 1 µM. In general terms: Fluorescence polarisation rises when a labelled molecule tumbles more slowly, as on binding a larger partner.

Assay [9] has the same test system. The assay can be described thus: fluorescence titration. As to conditions: 138 mM NaCl, 2.7 mM KCl, 2.5 mM MgCl2, 10 mM PBS pH 7.4, 0.05% TWEEN 20, 25 °C, compound 1 µM.
Assay [10] deals with CA-18B (DNA, aptamer) GGGTGGGTGGGTTGGGGT
The assay can be described thus: fluorescence titration. The following applies: 138 mM NaCl, 2.7 mM KCl, 2.5 mM MgCl2; 10 mM PBS pH 7.4, 0.05% TWEEN 20, 25 °C; compound 1 µM; nucleic acid up to 10 µM.

In assay [11] the test system is CA-19 (DNA, aptamer) GGGTGGGTGGGTTGGGGTA
The assay can be described thus: fluorescence titration. As to conditions: 138 mM NaCl, 2.7 mM KCl, 2.5 mM MgCl2; 10 mM PBS pH 7.4, 0.05% TWEEN 20, 25 °C; compound 1 µM; nucleic acid up to 10 µM.

Assay [12] relates to CA-18A (DNA, aptamer) TGGGTGGGTGGGTTGGGG
The assay can be described thus: fluorescence titration. As to conditions: 138 mM NaCl, 2.7 mM KCl, 2.5 mM MgCl2, 10 mM PBS pH 7.4, 0.05% TWEEN 20, 25 °C, compound 1 µM.

In assay [13] the test system is CA-17 (DNA, aptamer) GGGTGGGTGGGTTGGGG
The assay can be described thus: fluorescence titration. The following applies: 138 mM NaCl, 2.7 mM KCl, 2.5 mM MgCl2, 10 mM PBS pH 7.4, 0.05% TWEEN 20, 25 °C, compound 1 µM.

Each structure is given as a SMILES string.

Turning to `CC[C@@]1(O)C(=O)OCc2c1cc1n(c2=O)Cc2c-1nc1ccccc1c2CN1CCC(NC(=O)COCC(=O)NCCOCCOCCOCCOCCOCCOCCOCCOCCOCCOCCOCCN)CC1`, the Kd is more than 10 µM in assay [1]; 2.1 ± 0.9 µM in [2]; 1.8 ± 0.3 µM in [4] (compound 1 µM, 1:1 assumed); 3.0 ± 0.4 µM in assay [6]; more than 10 µM in [7]; 1.8 ± 0.3 µM in assay [9]. In addition, the Kd in [10] is reported as more than 10 µM; in assay [11] it was more than 10 µM; in assay [12] (1:1 assumed), 6.0 ± 0.8 µM; in assay [13] (1:1 assumed), 8.1 ± 0.9 µM. In addition, the binding result is listed as “yes” in assay [3], “no” in assay [5] and “yes” in assay [8].

As for `O=C(O)Cc1ccc2[nH]c3ccccc3c(=O)c2c1`, the Kd in assay [4] (nucleic acid up to 10 µM) is on record as more than 10 µM.

Regarding `O=C1OC2(c3ccc(O)cc3Oc3cc(O)ccc32)c2ccccc21`, in assay [4] (nucleic acid up to 10 µM), the Kd was more than 10 µM.

With `O=c1c2ccccc2[nH]c2ccccc12`, the Kd in assay [4] (nucleic acid up to 10 µM) is given as more than 10 µM.

For the compound `CC[C@@]1(O)C(=O)OCc2c1cc1n(c2=O)Cc2cc3ccccc3nc2-1`, the Kd is listed as more than 10 µM in assay [1]; 4.6 ± 0.3 µM in [4] (compound 1 µM, 1:1 assumed); 5.6 ± 0.5 µM in assay [6]; 4.2 ± 0.4 µM in assay [9] (1:1 assumed); more than 10 µM in assay [10]; more than 10 µM in [11]. For the same compound, the Kd in [12] (nucleic acid up to 10 µM) and in assay [13] (nucleic acid up to 10 µM) was more than 10 µM each time.

In the case of `CC[C@@]1(O)C(=O)OCc2c1cc1n(c2=O)Cc2c-1nc1ccccc1c2CN1CCC(N)CC1`, the Kd is given as more than 10 µM in assay [1]; 3.6 ± 0.2 µM in [4] (compound 1 µM, 1:1 assumed); 3.0 ± 0.2 µM in assay [6]; 2.7 ± 0.3 µM in [9] (1:1 assumed); more than 10 µM in assay [10]; more than 10 µM in assay [11]. In addition, the Kd in assay [12] (1:1 assumed) came out at 3.4 ± 0.3 µM; in assay [13] (1:1 assumed), 8.9 ± 1.0 µM.

In [4], `Cc1cc2nc3c(=O)[nH]c(=O)nc-3n(C[C@H](O)[C@H](O)[C@H](O)COP(=O)(O)O)c2cc1C` showed a Kd of 8.5 µM.

A word on the Kd: it is the concentration at which binding is half-saturated. A high value points to weaker binding.
